Test results as given in publication PMC11091220, “Metabolism-driven in vitro/in vivo disconnect of an oral ERɑ VHL-PROTAC” (Communications Biology, 2024).

What was measured:
[1] = biological target: ESR1-Nanoluciferase fusion protein (Homo sapiens, UniProt P03372); assay: ERα nanoluciferase degradation assay; assay type: cell-based
Experimental: MCF7 pTRIPZ Cas9 cells stably transfected with pSMPNeo dual Luc ESR1 vector (containing ESR1-Nanoluciferase fusion protein/reporter and a Firefly luciferase reporter) were seeded into T175 flasks and incubated for 48 hours in RPMI 1640 media containing 10% (v/v) foetal bovine serum (FBS) and 2 mM L-Glutamine. The cells were then seeded at 20000 cells/well into 384-well plates containing compounds at concentrations ranging from 3.125 µM to 15.9 pM. Following 24 hours incubation (37 °C, 5% CO2), media was removed and ONE-Glow^TM EX luciferase reagent (Promega) was added to each well. Firefly luminescence was measured after 5 minutes using an Envision (PerkinElmer). NanoDLR^TM Stop and Glo® reagent (Promega) was added and incubated for ten minutes (room temperature), before measuring Nano luminescence using the Envision. Wells containing vehicle or 3 µM Fulvestrant were used to normalise data, and degradation of ESR1-Nanoluciferase was analysed using Genedata Screener.

ER-regulated genes = assay: Gene expression analysis of ER-regulated genes (qPCR), MCF7 and CAMA1 cells; assay type: cell-based; settings: 100 nM, 0.1 nM estradiol, 24 hours
Experimental: MCF7 and CAMA1 cells were plated at 1.2 x 10^6 cells/well into 6-well TC-treated plates in phenol red-free RPMI containing 5% charcoal-stripped FBS (F6765, Sigma) and treated with 0.1 nM estradiol in the presence of 100 nM fulvestrant, 100 nM AZD9833, 100 nM AZ’6421 or DMSO control for 24 hours. A non-estradiol-treated control was also included with 3 biological replicates per condition. Samples were harvested in 1 mL of QIAzol Lysis Buffer and snap-frozen. RNA was extracted using the RNeasy 96 QIAcube HT total RNA Cell with DNAse treatment following manufacturer instructions. Samples were randomized over 96-well plates. RNA concentration was quantified using the Qubit RNA BR kit (# Q10213 Invitrogen) and RNA integrity was analyzed on a bioanalyzer using the RNA 6000 Nano Kit (# 5067-1511-Agilent) following the manufacturer’s instructions. Targeted gene expression was performed using a 48 × 48 or 96 × 96 Fluidigm dynamic array (Fluidigm, San Francisco CA, USA) and Taqman primers (Thermo Scientific, Waltham, MA). […] The Fluidigm Array was then primed and loaded on an IFC Controller and quantitative PCR (qPCR) experiments were run on the Biomark System, using the standard Default_10 min_HotStart protocol or M96_default protocol for 48 × 48 or 96 × 96 chips, respectively. Data were collected and analysed using the Fluidigm Real-Time PCR Analysis software to generate the Ct values. […]

Sequence of ESR1-Nanoluciferase fusion protein (P40337 whole entry, the tested form may be a part): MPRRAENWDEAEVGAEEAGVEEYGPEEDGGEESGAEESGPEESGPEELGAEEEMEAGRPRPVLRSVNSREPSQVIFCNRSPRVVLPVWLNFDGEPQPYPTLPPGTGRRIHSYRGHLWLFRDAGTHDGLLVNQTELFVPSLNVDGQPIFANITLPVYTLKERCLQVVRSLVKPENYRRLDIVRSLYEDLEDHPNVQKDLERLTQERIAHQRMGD
Sequence of ESR1-Nanoluciferase fusion protein (P03372 whole entry, the tested form may be a part): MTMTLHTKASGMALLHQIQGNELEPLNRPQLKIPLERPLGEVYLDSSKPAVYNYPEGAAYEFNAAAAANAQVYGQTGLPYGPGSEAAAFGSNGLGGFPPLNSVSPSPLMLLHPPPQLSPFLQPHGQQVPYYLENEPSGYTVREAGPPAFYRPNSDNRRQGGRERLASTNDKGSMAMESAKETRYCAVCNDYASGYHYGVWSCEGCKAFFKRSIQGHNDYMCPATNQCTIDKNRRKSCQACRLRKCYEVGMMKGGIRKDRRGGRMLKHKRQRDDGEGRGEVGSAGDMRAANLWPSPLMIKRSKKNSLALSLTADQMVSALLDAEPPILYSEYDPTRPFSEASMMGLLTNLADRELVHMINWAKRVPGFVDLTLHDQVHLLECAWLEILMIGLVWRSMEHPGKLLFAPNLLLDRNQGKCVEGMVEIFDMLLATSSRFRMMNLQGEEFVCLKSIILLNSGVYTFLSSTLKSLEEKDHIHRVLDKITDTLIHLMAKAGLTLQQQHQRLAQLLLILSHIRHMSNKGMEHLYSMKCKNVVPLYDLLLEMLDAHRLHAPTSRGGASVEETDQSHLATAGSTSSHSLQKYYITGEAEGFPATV

Cc1ncsc1-c1ccc(CNC(=O)[C@@H]2C[C@@H](O)CN2C(=O)[C@@H](NC(=O)COCCCOCCCOc2cc(F)c([C@@H]3c4[nH]c5ccccc5c4C[C@@H](C)N3CC(C)(C)F)c(F)c2)C(C)(C)C)cc1 [Compound 5]
DC50 ([1]; 24 hours, read-out: ERα nano-luciferase degradation DC50): 0.015 ± 0.009 µM
IC50 ([1]; Table 1 source data, mean, read-out: ERa nanocluciferase degradation DC50 (nM), Mean IC50): 15 nM
Dmax ([1]; read-out: ERα nano-luciferase Dmax): 121 ± 15%
expression of ER-regulated genes (ER-regulated genes): effectively supressed the expression of a range of ER-regulated genes
